The target in one test is T1, human CB1 receptor (Homo sapiens, UniProt P21554).
T1 construct: expressed in transfected cells; host or cells: human embryonic kidney (HEK) cells, Semliki Forest Virus system, membrane preparations
The test can be described thus: CB1 receptor affinity, [3H]-CP-55,940 displacement, HEK cell membranes. The format is binding. Conditions: 10 μM compound, radioligand [3H]-CP-55,940; read-out: CB1 receptor affinity [% inhibition @ 10 μM]. The protocol: (§1) The affinity of the compounds of the invention for cannabinoid receptors was determined using membrane preparations of human embryonic kidney (HEK) cells in which the human CB1 receptor is transiently transfected using a Semliki Forest Virus system in conjunction with [3H]-CP-55,940 as radioligand. After incubation of freshly prepared cell membrane preparation with the [^3H]-ligand, with or without addition of compounds of the invention, separation of bound and free ligand was performed by filtration over glass fiber filters. Radioactivity on the filter was measured by scintillation counting.
(§2) The ability of the compounds to displace the radioligand [^3H]-CP-55,940 was measured at a concentration of 10 μM and values provided as [% inhibition @ 10 μM] both for the CB 1 and CB2 receptor assay, The lower % inhibition is, the lower the likelihood of side effects based on CB1 or CB2 receptor inhibition is.

The target of another test is T2, human CB2 receptor (Homo sapiens, UniProt P34972).
T2 construct: expressed in transfected cells; host or cells: human embryonic kidney (HEK) cells, Semliki Forest Virus system, membrane preparations
T2 sequence (P34972 whole entry): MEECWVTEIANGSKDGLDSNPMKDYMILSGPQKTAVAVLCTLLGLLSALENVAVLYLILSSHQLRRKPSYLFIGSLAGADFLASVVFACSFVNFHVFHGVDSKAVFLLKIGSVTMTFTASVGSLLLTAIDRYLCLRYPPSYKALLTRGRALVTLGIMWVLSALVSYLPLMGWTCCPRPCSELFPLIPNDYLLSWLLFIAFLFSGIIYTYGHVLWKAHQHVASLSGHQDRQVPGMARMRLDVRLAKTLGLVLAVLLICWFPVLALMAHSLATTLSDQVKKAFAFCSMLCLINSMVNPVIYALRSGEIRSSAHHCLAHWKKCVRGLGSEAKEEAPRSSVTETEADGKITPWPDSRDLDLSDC
The test can be described thus: CB2 receptor affinity, [3H]-CP-55,940 displacement, HEK cell membranes. The format is binding. Conditions: 10 μM compound, radioligand [3H]-CP-55,940. The protocol:
as §1, with “cannabinoid CB2” for “cannabinoid”, “CB2” for “CB1”, “[^3H]-CP-55,940” for “[3H]-CP-55,940”
as §2

The test system of the next test is ABCA1 protein. The test can be described thus: Detection of upregulation of ABCA1 protein in THP-1 macrophage cells (ApoA-I binding, high content imaging). The test is classed as cell-based. The note with it: 24 hrs with compound, AlexaFluor 647 ApoA-I binding, read-out: ABCA1 protein increasing efficacy EC50. The protocol: The ability of compounds of the invention to increase the level of ABCA1 protein is determined in replicate cultures of THP-1 macrophage cells in 96-well microplates. Cells are plated at an initial density of 100,000 cells/well in 100 μl medium and differentiated to adherent macrophages with the addition of PMA (100 nM) for 68 hrs in 10% fetal bovine serum, 3 μl/L of b-mercaptoethanol, RPMI-1640 medium. Then, cells are incubated with RPMI-1640 medium containing 1% FCS, 25 μg/ml acetylated LDL, for 24 hours at 37°. Following incubation with acetylated LDL, cells are washed twice with 50 μl PBS and incubated with 100 μl of RPMI-1640 medium containing the compound of interest solubilized in DMSO for an additional 24 hrs. The final DMSO concentration in presence of cells is maintained at 0.5%. ApoA-I binding assay using High Content Image Analysis is initiated by replacing with fresh medium, RPMI without Phenol Red, 0.2% BSA containing AlexaFluor®647 labeled ApoA-I for 2 h/37° C./5% CO2. Then, cells are fixed with 4% Formaldehyde in PBS (15 min, RT). Following Nuclei are stained with Hoechst solution (3 μM PBS) and Cytoplasm with Cell Mask Blue (2 μg/ml PBS), 15 min, RT. Finally the stained cells are fixed with a second round of formaldehyde treatment. Fixed stained cells are washed and kept in PBS at 4° C. and can be read immediately until one month after preparation.
The Alexa Fluor 647-labeled Apolipoprotein A-I (20 nM) was prepared as follows: Human recombinant Apolipoprotein A-I (ApoA-I) was exchanged to a buffer of 0.02 M NaHCO3 at pH 8.2 on an NAP desalting column (GE Healthcare) and brought to a concentration to 40 μM (1.13 mg/ml) by adjustment with the same buffer. The ApoA-I was fluorescently labeled by incubation with Alexa Fluor carboxylic acid succimidyl ester. (Alexa Fluor 647, Invitrogen A-20006) at a 2:1 molar ratio (Alexa to ApoA-I) for 1 h under shaking at RT. The remaining unconjugated label was removed by buffer exchange to 0.02M NaHCO3 at pH 8.2.
Imaging and data collection were performed on an OPERA confocal microplate imaging reader using a 20× water immersion objective and UV360 or 405 laser to identify the cell nuclei and a 635 laser to identify the fluorescent ApoA-I. Eight fields of view are captured per well. Image capture and analysis was performed with the Acapella software. Background fluorescence detected in control wells without ApoA-I was subtracted.
Using XLfit3 program (ID Business Solutions Ltd. UK), the model 205 for Dose Response One Site is used to calculate the EC50 values. […] Preferably, the compounds of the present invention have EC50 values in a range of 0.1 μM to 3 μM.

Structures are written as SMILES.

T1 sequence (P21554 whole entry): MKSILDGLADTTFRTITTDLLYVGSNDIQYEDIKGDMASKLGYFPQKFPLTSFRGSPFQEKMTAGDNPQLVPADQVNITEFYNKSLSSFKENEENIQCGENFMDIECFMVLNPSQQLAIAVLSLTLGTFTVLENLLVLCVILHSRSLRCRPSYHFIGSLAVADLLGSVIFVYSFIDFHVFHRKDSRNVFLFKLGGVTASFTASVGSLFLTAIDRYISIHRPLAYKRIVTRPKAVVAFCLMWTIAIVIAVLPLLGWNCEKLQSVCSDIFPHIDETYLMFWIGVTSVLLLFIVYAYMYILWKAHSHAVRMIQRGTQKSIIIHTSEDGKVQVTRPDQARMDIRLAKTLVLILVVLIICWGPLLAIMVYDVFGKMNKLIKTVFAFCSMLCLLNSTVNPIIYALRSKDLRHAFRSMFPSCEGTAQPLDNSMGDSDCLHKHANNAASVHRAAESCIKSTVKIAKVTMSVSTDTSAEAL

As to `O=C(NCc1nc(C(F)(F)F)no1)c1ccc(OCC(F)(F)F)c(-c2ccc(Cl)cc2)n1` [Example 22, 6-(4-chloro-phenyl)-5-(2,2,2-trifluoro-ethoxy)-pyridine-2-carboxylic acid (3-trifluoromethyl-[1,2,4]oxadiazol-5-ylmethyl)-amide], the inhibition (as a rule, the relative decrease from the control value, in per cent) at 10 µM on human CB1 receptor was 40%; at human CB2 receptor it was 6%. Moreover, the EC50 – broadly, the concentration that produces a half-maximal response – with ABCA1 protein was found to be 2.27 µM.

As for `CCc1nc(CNC(=O)c2cnc(OCC(F)(F)F)c(-c3ccc(Cl)cc3)c2)cs1` [Example 7, 5-(4-chloro-phenyl)-N-(2-ethyl-thiazol-4-ylmethyl)-6-(2,2,2-trifluoro-ethoxy)-nicotinamide], the figures for the inhibition at 10 µM on human CB1 receptor and on human CB2 receptor were 22% and 6%, respectively. In addition, the half-maximal effective concentration (EC50) in the test on ABCA1 protein came out at 1.5 µM.

For `COc1cc(CNC(=O)c2cnc(OCC(F)(F)F)c(-c3ccc(F)c(F)c3)c2)on1` [Example 99, 5-(3,4-difluorophenyl)-N-((3-methoxyisoxazol-5-yl)methyl)-6-(2,2,2-trifluoroethoxy)nicotinamide], the inhibition at 10 µM amounted to 20% on human CB1 receptor and 9% on human CB2 receptor. Further, the EC50 in the test on ABCA1 protein came out at 1.25 µM.

As to `Cc1cc(-c2cc(C(=O)NCc3csc(C4CC4)n3)ncc2OCC(F)(F)F)ccc1Cl` [Example 76, 4-(4-chloro-3-methylphenyl)-N-((2-cyclopropylthiazol-4-yl)methyl)-5-(2,2,2-trifluoroethoxy)picolinamide], the inhibition at 10 µM was 8% on human CB1 receptor and 9% on human CB2 receptor. The 50% effective concentration (EC50) with ABCA1 protein came to 1.64 µM.

`CC(C)c1nc(CNC(=O)c2cc(-c3ccc(Cl)cc3)c(OCC(F)(F)F)cn2)cs1` [Example 6, 4-(4-chloro-phenyl)-5-(2,2,2-trifluoro-ethoxy)-pyridine-2-carboxylic acid (2-isopropyl-thiazol-4-ylmethyl)-amide]: the inhibition at 10 µM on human CB1 receptor worked out at 5%; on human CB2 receptor, 15%. For the same compound, in the test with ABCA1 protein, the 50% effective concentration (EC50) is 7.8 µM.

Regarding `CC(C)c1cc(CNC(=O)c2cc(-c3ccc(Cl)cc3)c(OCC(F)(F)F)cn2)on1` [Example 2, 4-(4-chloro-phenyl)-5-(2,2,2-trifluoro-ethoxy)-pyridine-2-carboxylic acid (3-isopropyl-isoxazol-5-ylmethyl)-amide], the inhibition at 10 µM on human CB1 receptor is 30%; on human CB2 receptor, 14%. Also, the EC50 with ABCA1 protein amounted to 1.09 µM.

With `O=C(NCc1nc(C(F)(F)F)no1)c1ncc(OCC2CC2)c(-c2ccc(Cl)cc2)n1` [Example 21, 4-(4-chloro-phenyl)-5-cyclopropylmethoxy-pyrimidine-2-carboxylic acid (3-trifluoromethyl-[1,2,4]oxadiazol-5-ylmethyl)-amide], the inhibition at 10 µM is 44% on human CB1 receptor and 35% at human CB2 receptor.

In the case of `N#Cc1ccc(-c2cc(C(=O)NCc3nc(C(F)(F)F)no3)cnc2OCC(F)(F)F)cc1` [Example 87, 5-(4-cyanophenyl)-6-(2,2,2-trifluoroethoxy)-N-((3-(trifluoromethyl)-1,2,4-oxadiazol-5-yl)methyl)nicotinamide], the inhibition at 10 µM on human CB1 receptor was determined as 45%; at human CB2 receptor it was 3%.

On to `O=C(NCc1ccccn1)c1cnc(OC2CCC2)c(-c2ccc(Cl)cc2)c1` [Example 101, 5-(4-chlorophenyl)-6-cyclobutoxy-N-(pyridin-2-ylmethyl)nicotinamide], for which the inhibition at 10 µM on human CB1 receptor was determined as 45%; on human CB2 receptor it was 37%.

For `CC(C)c1cc(CNC(=O)c2ccc(OCC3CC3)c(-c3ccc(Cl)cc3)n2)no1` [Example 55, 6-(4-chloro-phenyl)-5-cyclopropylmethoxy-pyridine-2-carboxylic acid (5-isopropyl-isoxazol-3-ylmethyl)-amide], the inhibition at 10 µM was 44% at human CB1 receptor and 33% at human CB2 receptor.

Take `O=C(NCc1nc(C(F)(F)F)no1)c1cnc(OC2CCC2)c(-c2ccc(Cl)c(F)c2)c1` [Example 93, 5-(4-chloro-3-fluorophenyl)-6-cyclobutoxy-N-((3-(trifluoromethyl)-1,2,4-oxadiazol-5-yl)methyl)nicotinamide]: the figures for the inhibition at 10 µM on human CB1 receptor and at human CB2 receptor were 18% and 7%, respectively.

`COCCOc1ncc(C(=O)NCc2nc(C(F)(F)F)no2)cc1-c1ccc(Cl)c(C)c1` [Example 98, 5-(4-chloro-3-methylphenyl)-6-(2-methoxyethoxy)-N-((3-(trifluoromethyl)-1,2,4-oxadiazol-5-yl)methyl)nicotinamide]: the inhibition at 10 µM at human CB1 receptor came to 41%; on human CB2 receptor it was 16%.

Consider `O=C(NCc1cc(C2CC2)no1)c1cc(-c2ccc(Cl)cc2)c(OCC(F)(F)F)nn1` [Example 49, 5-(4-Chloro-phenyl)-6-(2,2,2-trifluoro-ethoxy)-pyridazine-3-carboxylic acid (3-cyclopropyl-isoxazol-5-ylmethyl)-amide], for which the inhibition at 10 µM on human CB1 receptor turned out to be 36%; on human CB2 receptor it was 13%.

`O=C(NCc1nc(C2CC2)no1)c1ncc(OCC2CC2)c(-c2ccc(Cl)cc2)n1` [Example 17, 4-(4-chloro-phenyl)-5-cyclopropylmethoxy-pyrimidine-2-carboxylic acid (3-cyclopropyl-[1,2,4]oxadiazol-5-ylmethyl)-amide]: the figures for the inhibition at 10 µM at human CB1 receptor and at human CB2 receptor were 48% and 45%, respectively.

As to `O=C(NCc1nc(C(F)(F)F)no1)c1cnc(O[C@@H]2CCOC2)c(-c2ccc(Cl)cc2)c1` [Example 103, (R)-5-(4-chlorophenyl)-6-(tetrahydrofuran-3-yloxy)-N-((3-(trifluoromethyl)-1,2,4-oxadiazol-5-yl)methyl)nicotinamide], the inhibition at 10 µM on human CB1 receptor worked out at 47%; on human CB2 receptor it was 24%.

On to `CC(C)c1nc(CNC(=O)c2ccc(OCC3CC3)c(-c3ccc(Cl)cc3)n2)cs1` [Example 52, 6-(4-chloro-phenyl)-5-cyclopropylmethoxy-pyridine-2-carboxylic acid (2-isopropyl-thiazol-4-ylmethyl)-amide], for which the inhibition at 10 µM came out at 38% on human CB1 receptor and 43% on human CB2 receptor.

Turning to `O=C(NCc1nc(C(F)(F)F)no1)c1cnc(OCCO)c(-c2ccc(Cl)cc2)c1` [Example 102, 5-(4-chlorophenyl)-6-(2-hydroxyethoxy)-N-((3-(trifluoromethyl)-1,2,4-oxadiazol-5-yl)methyl)nicotinamide], the figures for the inhibition at 10 µM on human CB1 receptor and at human CB2 receptor were 26% and -4%, respectively.

On to `CC(C)(C)c1nc(CNC(=O)c2cc(-c3ccc(Cl)cc3)c(OCC3CC3)cn2)cs1` [Example 54, N-((2-tert-butylthiazol-4-yl)methyl)-4-(4-chlorophenyl)-5-(cyclopropylmethoxy)picolinamide], for which the inhibition at 10 µM is 20% at human CB1 receptor and 12% at human CB2 receptor.

With `CC(C)c1cc(CNC(=O)c2cnc(OCC3CC3)c(-c3ccc(Cl)cc3)c2)no1` [Example 32, 5-(4-chlorophenyl)-6-(cyclopropylmethoxy)-N-((5-isopropylisoxazol-3-yl)methyl)nicotinamide], the inhibition at 10 µM on human CB1 receptor was determined as 47%; at human CB2 receptor it was 26%.

These data come from US9090599B2, “Heteroarylmethyl amides” (Hoffman-La Roche Inc., priority 2010, dated 2015).
